Assay results taken from patent US20180125816A1, “SAROGLITAZAR MAGNESIUM FOR THE TREATMENT OF CHYLOMICRONEMIA SYNDROME” (CADILA HEALTHCARE LIMITED, priority 2015, published 2018).

What was measured:
Zucker fa/fa rats [1] = experiment: Severe hypertriglyceridemia induced by Triton WR-1339 (inhibition of LPL) in Zucker fa/fa rats, serum triglycerides; format: in vivo, rat; conditions: for % Change in AUC-TG vs Vehicle Control: AUC 0-48 hr; for reduction in serum triglycerides (TG): 0-hr time point, after repeat dose treatment
Protocol: The obese Zucker (fatty) rat is one of the oldest models of NIDDM, resembling human type II diabetes, i.e. diabetes associated with obesity. It is characterized by hyperphagia and associated with mild hyperglycaemia, insulin resistance, mild glucose intolerance, hyperlipidaemia specially hypertriglyceridemia. When the non-ionic detergent Triton WR-1339 is injected into Zucker fa/fa rats, there is a progressive accumulation of triacylglycerols in the plasma/serum (Friedman & Byers, 1953; Otway & Robinson, 1967). […] So the nonionic detergent, Triton WR-1339 (Triton), has commonly been used to inhibit LPL for this purpose to produce the condition of severe hypertriglyceridemia similar to familial chylomicronemia syndrome and Type V hyperlipoproteinemia.
In this study 20 male and 14 female Zucker fa/fa rats of 6-10 weeks of age were selected for the and on day-0, body weight of animals recorded and blood samples (approximately 80 μl to 90 μl) was collected via retro orbital route using isoflurane as inhalation anaesthesia, serum separated and serum triglyceride estimated and 24 animals were selected and grouped on the basis of serum triglyceride level as primary parameter as below
From hyphen or day-1 to Day-14, compounds were formulated in 5% PEG+5% Tween 80+90% (0.5%) Na-CMC in such, a way that the final volume of administration was 2 ml/kg of body wt, and animals were dosed orally once daily as per grouping details.
On day-14 blood samples were collected after 1 hour of dosing, serum separated and serum triglycerides (TG) was estimated. Animals were being kept on 24 hours fasting after completion of day-14 activities. On day-15, after 24 hours of fasting, body wt. of all animals was recorded. Then formulations of treatment items were prepared in vehicle and Triton WR-1339 prepared in 0.9% saline for intraperitoneal injection at dose of 250 mg/kg per 5 ml. Basal blood samples collected and animals were administered orally with respective treatment and immediately injected intraperitoneally with Triton WR-1339. Blood samples (approx, 1 ml per sample) were also collected at 6 hr, 24 hours and 48 hours after triton administration and serum triglycerides levels were estimated using Cobas C 311 clinical chemistry autoanalyser from Roche Diagnostics using commercial diagnostic kits.
% change at 6-hr, 24-hr and 48-hr for TG vs Vehicle Control was calculated using MS using MS Excel. The area under curve for TG, AUC-TG (0-48), was calculated using Graph Pad® software.

Zucker fa/fa rats [2] = experiment: Fatty tolerance test with 13C-palmitate/corn oil after 14 days repeated dosing: hyper-chylomicronemia and chylomicron dynamics; format: in vivo, rat; conditions: for 13C Palmitate / Palmitate total: adipose tissue
Protocol: In this study, the effect of Compound (1) on hyper-chylomicronemia and chylomicron dynamics in Zucker fa/fa rats after 14 days repeated dose administration was evaluated.
Zucker (fa/fa) fatty rat of 7-8 weeks of age were purchased from Charles River Laboratory and single-housed under a pathogen free environment with constant room temperature (20-22° C.) and relative humidity (40-50%) and a 6:00 pm-6:00 am dark-light cycle. Rats were provided with free access to food (Lab Diet 5L0D, an irradiated regular rodent diet containing 23% of protein and 4.5% of fat) and water. Initial body weight and body composition (using a NMR analyzer) were measured 6 days post-arrival. The rats were then randomly divided into four dosing groups based BW and fat mass as below—
Dosing was begun at 9-10 weeks of age, once daily (8-10 am) by oral gavage for 14 days. On the day-14 of dosing, a final body composition (after dosing) was measured. On day-15, all animals were given a fatty tolerance test (FTT) after being fasted overnight (15-16 hours), followed by blood and tissue collection.
Fatty Tolerance Test Procedure (FTT): • 1. Following an overnight fast, rats were orally gavaged with a mixture of ^13C-Palmitic Acid (1 and corn oil (1 g of^13C-P dissolved in 5 ml of corn oil) at 5 ml/kg·bw. • 2. Blood samples were collected via tail vein bleeding using 3×300 ul EDTA tubes at the following time points:
0 hour (initial), 1 hour, 2 hour, 3 hour, 4 hour, 5 hour, 6 hour, 8 hour
After the 8 hour bleeding, rats were knocked down in a drop jar using isoflurane. Once sedated, the rats were hooked up to a Midmark Matrx Anesthesia isoflurane machine that dispensed isoflurane vapor at […] with an oxygen flow rate of 1 L/min. Organs and tissues were dissected and frozen immediately in liquid nitrogen and stored at −80° C. LCMS and GCMS were used to assess the incorporation of ^13C lipids into plasma and tissue lipids (n=5 for tissue metabolomics studies).

## CC(C)OC(=O)C(C)(C)Oc1ccc(C(=O)c2ccc(Cl)cc2)cc1 [Fenofibrate, reference compound]
Zucker fa/fa rats [1]; 65 mg/kg
  reduction in AUC-TG Vs Vehicle control group: 11%
Zucker fa/fa rats [1]; 65 mg/kg p.o. once daily
  AUC-TG (0-48 hr.): 93412.8 ± 12023.5 mg·h/dL
Zucker fa/fa rats [1]; 65 mg/kg p.o. once daily, 0 hr
  Serum Triglycerides after Triton WR-1339 administration: 324.9 ± 45.3 mg/dL
Zucker fa/fa rats [1]; 65 mg/kg p.o. once daily, 6 hr
  Serum Triglycerides after Triton WR-1339 administration: 1048.1 ± 147.4 mg/dL
Zucker fa/fa rats [1]; 65 mg/kg p.o. once daily, 24 hr
  Serum Triglycerides after Triton WR-1339 administration: 2871.5 ± 357.4 mg/dL
Zucker fa/fa rats [1]; 65 mg/kg p.o. once daily, 48 hr
  Serum Triglycerides after Triton WR-1339 administration: 1630.0 ± 329.8 mg/dL
Zucker fa/fa rats [1]; 65 mg/kg p.o., 0 hr after Triton WR-1339
  % Change in TG Vs Vehicle Control: −37.4 ± 8.7%
Zucker fa/fa rats [1]; 65 mg/kg p.o., 6 hr after Triton WR-1339
  % Change in TG Vs Vehicle Control: 34.9 ± 19.0%
Zucker fa/fa rats [1]; 65 mg/kg p.o., 48 hr after Triton WR-1339
  % Change in TG Vs Vehicle Control: −25.0 ± 15.2%
Zucker fa/fa rats [2]; 150 mg/kg p.o.
  % Change in 13C Palmitate uptake in adipose tissue Vs Vehicle Control: −14%
  13C Palmitate: 2.88 ± 0.57 Nanomole/mg protein
  Palmitate total: 6.90 ± 0.24 micromole/mg protein
Zucker fa/fa rats [2]; 150 mg/kg p.o. 14 days, 120 min
  Plasma TG in FTT: 502.2 ± 8.1 mg/dL

## CCO[C@@H](Cc1ccc(OCCn2c(C)ccc2-c2ccc(SC)cc2)cc1)C(=O)O [Compound (1), Saroglitazar Magnesium]
Zucker fa/fa rats [1]; 1 mg/kg
  reduction in AUC-TG Vs Vehicle control group: 48%
  reduction in serum triglycerides (TG): 64%
Zucker fa/fa rats [1]; 1 mg/kg p.o. once daily
  AUC-TG (0-48 hr.): 54241.5 ± 11182.3 mg·h/dL
Zucker fa/fa rats [1]; 1 mg/kg p.o. once daily, 0 hr
  Serum Triglycerides after Triton WR-1339 administration: 188.3 ± 15.6 mg/dL
Zucker fa/fa rats [1]; 1 mg/kg p.o. once daily, 6 hr
  Serum Triglycerides after Triton WR-1339 administration: 438.5 ± 52.7 mg/dL
Zucker fa/fa rats [1]; 1 mg/kg p.o. once daily, 24 hr
  Serum Triglycerides after Triton WR-1339 administration: 1797.2 ± 331.3 mg/dL
Zucker fa/fa rats [1]; 1 mg/kg p.o. once daily, 48 hr
  Serum Triglycerides after Triton WR-1339 administration: 889.5 ± 353.9 mg/dL
Zucker fa/fa rats [1]; 1 mg/kg p.o., 0 hr after Triton WR-1339
  % Change in TG Vs Vehicle Control: −63.7 ± 3.0%
Zucker fa/fa rats [1]; 1 mg/kg p.o., 6 hr after Triton WR-1339
  % Change in TG Vs Vehicle Control: −43.6 ± 6.8%
Zucker fa/fa rats [1]; 1 mg/kg p.o., 24 hr after Triton WR-1339
  % Change in TG Vs Vehicle Control: −44.7 ± 10.2%
Zucker fa/fa rats [1]; 1 mg/kg p.o., 48 hr after Triton WR-1339
  % Change in TG Vs Vehicle Control: −59.1 ± 16.3%
Zucker fa/fa rats [1]; 1 mg/kg p.o.
  % Change in AUC-TG vs Vehicle Control: −48.4 ± 10.6%
Zucker fa/fa rats [1]; 10 mg/kg
  reduction in AUC-TG Vs Vehicle control group: 63%
  reduction in serum triglycerides (TG): 82%
Zucker fa/fa rats [1]; 10 mg/kg p.o. once daily
  AUC-TG (0-48 hr.): 39050.3 ± 6922.7 mg·h/dL
Zucker fa/fa rats [1]; 10 mg/kg p.o. once daily, 0 hr
  Serum Triglycerides after Triton WR-1339 administration: 93.2 ± 7.9 mg/dL
Zucker fa/fa rats [1]; 10 mg/kg p.o. once daily, 6 hr
  Serum Triglycerides after Triton WR-1339 administration: 328.9 ± 111.9 mg/dL
Zucker fa/fa rats [1]; 10 mg/kg p.o. once daily, 24 hr
  Serum Triglycerides after Triton WR-1339 administration: 1463.8 ± 265.3 mg/dL
Zucker fa/fa rats [1]; 10 mg/kg p.o. once daily, 48 hr
  Serum Triglycerides after Triton WR-1339 administration: 340.4 ± 151.7 mg/dL
Zucker fa/fa rats [1]; 10 mg/kg p.o., 0 hr after Triton WR-1339
  % Change in TG Vs Vehicle Control: −82.0 ± 1.5%
Zucker fa/fa rats [1]; 10 mg/kg p.o., 6 hr after Triton WR-1339
  % Change in TG Vs Vehicle Control: −57.7 ± 14.4%
Zucker fa/fa rats [1]; 10 mg/kg p.o., 48 hr after Triton WR-1339
  % Change in TG Vs Vehicle Control: −84.3 ± 7.0%
Zucker fa/fa rats [1]; 10 mg/kg p.o.
  % Change in AUC-TG vs Vehicle Control: −62.9 ± 6.6%
Zucker fa/fa rats [1]; 1 and 10 mg/kg, all time points after Triton WR-1339
  lowering of TG levels (in words): dose dependent lowering of TG levels at all-time points
Zucker fa/fa rats [1]; compared to fenofibrate
  blunting an increase in serum triglycerides (in words): significantly effective in blunting an increase in serum triglycerides
Zucker fa/fa rats [2]; 0 and 2 hour post corn oil treatment
  plasma triglyceride (TG) in FTT (in words): significantly reduced plasma triglyceride (TG)
Zucker fa/fa rats [2]; 0.4 mg/kg p.o.
  % Change in 13C Palmitate uptake in adipose tissue Vs Vehicle Control: 86%
  13C Palmitate: 6.20 ± 0.89 Nanomole/mg protein
  Palmitate total: 7.14 ± 0.30 micromole/mg protein
Zucker fa/fa rats [2]; 0.4 mg/kg p.o. 14 days, 0 min
  Plasma TG in FTT: 330.5 ± 39.2 mg/dL
Zucker fa/fa rats [2]; 0.4 mg/kg p.o. 14 days, 120 min
  Plasma TG in FTT: 389.2 ± 21.8 mg/dL
Zucker fa/fa rats [2]; 4 mg/kg p.o.
  % Change in 13C Palmitate uptake in adipose tissue Vs Vehicle Control: 247%
  13C Palmitate: 11.57 ± 0.73 Nanomole/mg protein
  Palmitate total: 6.60 ± 0.29 micromole/mg protein
Zucker fa/fa rats [2]; 4 mg/kg p.o. 14 days, 0 min
  Plasma TG in FTT: 84.7 ± 9.3 mg/dL
Zucker fa/fa rats [2]; 4 mg/kg p.o. 14 days, 120 min
  Plasma TG in FTT: 171.3 ± 28.2 mg/dL
Zucker fa/fa rats [2]; conclusion of the study
  fasting and postprandial TG levels (in words): significantly reduces fasting and postprandial TG levels
Zucker fa/fa rats [2]; high dose (4 mg/kg)
  increase in accumulation of M+16 palmitate in adipose tissue: 247%
Zucker fa/fa rats [2]; low (0.4 mg/kg) and high (4 mg/kg) dose
  appearance of M+16 TG species TG (52:3) and TG (52:4) in plasma (in words): significantly attenuated the appearance of M+16 TG
Zucker fa/fa rats [2]; low and high dose (0.4 and 4 mg/kg)
  gastrocnemius M+16 palmitate labeling (in words): decreased gastrocnemius M+16 palmitate labeling
Zucker fa/fa rats [2]; low dose (0.4 mg/kg)
  increase in accumulation of M+16 palmitate in adipose tissue: 86%
